In patent publication US20220226337A1 (Gilead Sciences, Inc., priority 2018, published 2022) one finds EC50 data, which are given here for 11 molecules.

This assay addresses T1, α4β7 integrin interaction with MadCAM-1 (RPMI8866 cells) (Homo sapiens, UniProt P13612+P26010).
T1 construct: α4β7 integrin expressing cells; endogenous in cells; host or cells: RPMI8866 cells
T1 sequence (P13612 34-1032): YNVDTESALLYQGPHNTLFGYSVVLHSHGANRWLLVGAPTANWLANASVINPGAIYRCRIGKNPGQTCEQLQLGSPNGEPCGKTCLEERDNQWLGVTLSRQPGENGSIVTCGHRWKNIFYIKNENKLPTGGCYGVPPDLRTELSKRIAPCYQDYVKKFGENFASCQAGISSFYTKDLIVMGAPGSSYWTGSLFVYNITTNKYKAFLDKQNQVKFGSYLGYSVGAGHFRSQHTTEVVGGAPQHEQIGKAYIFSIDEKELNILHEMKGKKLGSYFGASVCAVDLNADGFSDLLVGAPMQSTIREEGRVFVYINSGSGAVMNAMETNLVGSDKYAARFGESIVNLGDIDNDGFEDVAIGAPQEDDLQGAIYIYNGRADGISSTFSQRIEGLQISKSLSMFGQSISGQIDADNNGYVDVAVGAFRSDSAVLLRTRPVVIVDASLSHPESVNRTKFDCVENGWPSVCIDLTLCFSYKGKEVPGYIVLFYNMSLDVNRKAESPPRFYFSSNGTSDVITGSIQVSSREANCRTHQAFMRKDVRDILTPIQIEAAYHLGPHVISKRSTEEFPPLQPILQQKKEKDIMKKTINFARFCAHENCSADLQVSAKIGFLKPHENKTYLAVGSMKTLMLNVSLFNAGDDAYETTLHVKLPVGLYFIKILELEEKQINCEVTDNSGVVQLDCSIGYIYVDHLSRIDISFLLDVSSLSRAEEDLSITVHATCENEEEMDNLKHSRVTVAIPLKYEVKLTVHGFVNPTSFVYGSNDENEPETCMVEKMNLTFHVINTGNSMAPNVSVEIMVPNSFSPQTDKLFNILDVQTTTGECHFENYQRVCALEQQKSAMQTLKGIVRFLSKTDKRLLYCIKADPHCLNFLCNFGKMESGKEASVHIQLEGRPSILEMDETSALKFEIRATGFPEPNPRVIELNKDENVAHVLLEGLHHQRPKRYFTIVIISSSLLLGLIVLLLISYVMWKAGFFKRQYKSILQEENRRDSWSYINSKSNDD
T1 sequence (P26010 20-798): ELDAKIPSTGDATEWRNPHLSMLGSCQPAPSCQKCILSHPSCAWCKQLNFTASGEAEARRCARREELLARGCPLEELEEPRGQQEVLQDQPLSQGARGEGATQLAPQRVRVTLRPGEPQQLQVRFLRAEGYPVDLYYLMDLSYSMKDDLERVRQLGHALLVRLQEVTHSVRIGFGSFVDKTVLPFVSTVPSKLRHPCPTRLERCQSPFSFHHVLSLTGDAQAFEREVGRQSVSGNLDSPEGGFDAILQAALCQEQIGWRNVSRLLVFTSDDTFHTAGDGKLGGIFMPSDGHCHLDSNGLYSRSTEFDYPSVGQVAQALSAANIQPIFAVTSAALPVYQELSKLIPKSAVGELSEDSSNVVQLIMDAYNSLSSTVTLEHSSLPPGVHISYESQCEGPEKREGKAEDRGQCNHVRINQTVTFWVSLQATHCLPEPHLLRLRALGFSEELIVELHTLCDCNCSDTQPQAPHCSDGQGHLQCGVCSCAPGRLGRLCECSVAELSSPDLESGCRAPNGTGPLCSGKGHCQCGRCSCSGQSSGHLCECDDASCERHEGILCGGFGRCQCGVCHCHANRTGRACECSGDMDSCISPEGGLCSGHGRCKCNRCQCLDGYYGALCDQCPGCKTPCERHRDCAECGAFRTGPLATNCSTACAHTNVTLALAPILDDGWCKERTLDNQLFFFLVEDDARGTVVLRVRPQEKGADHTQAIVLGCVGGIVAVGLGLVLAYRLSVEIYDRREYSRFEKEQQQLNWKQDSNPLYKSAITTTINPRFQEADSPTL
As to the kind of experiment: α4β7 Integrin Cell Capture Assay. The class given is cell-based. The note with it: capture of α4β7 integrin expressing RPMI8866 cells on recombinant MadCAM-1 extracellular domain-coated plate; 0.5 mM MnCl2. An outline of the steps:
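RPMI8866 cells (0.5×10^6 cells/mL in DMEM + 0.5% FBS + 0.5 mM MnCl2) preincubated with compound 1 h at 37 °C, then allowed to adhere 30 min at 37 °C to plates coated with MAdCAM-1 extracellular domain (1.0 μg/mL). Bound cells fixed with 2% glutaraldehyde, Hoechst-stained, imaged and counted; EC50 from cell count versus concentration.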
Take `COc1cc(C#Cc2ccc(OC(F)(F)F)cc2)cc(OC)c1-c1ccc(C[C@H](NC(=O)c2c(Cl)cccc2Cl)C(=O)O)c2c1OCCC2` [Example 93, (S)-2-(2,6-dichlorobenzamido)-3-(8-(2,6-dimethoxy-4-((4-(trifluoromethoxy)phenyl)ethynyl)phenyl)chroman-5-yl)propanoic acid]: the half-maximal effective concentration (EC50) turned out to be 0.491 µM.
`CC1(C)CCc2c(C[C@H](NC(=O)c3c(Cl)cccc3Cl)C(=O)O)ccc(-c3c(Cl)cc(F)cc3Cl)c2O1` [Example 95, (S)-3-(8-(2,6-dichloro-4-fluorophenyl)-2,2-dimethylchroman-5-yl)-2-(2,6-dichlorobenzamido)propanoic acid]: the EC50 was 0.625 µM.
For `O=C(N[C@@H](Cc1ccc(-c2c(Cl)cc(F)cc2Cl)c2c1OCCCO2)C(=O)O)c1c(F)cccc1F` [Example 96, (S)-3-(9-(2,6-dichloro-4-fluorophenyl)-3,4-dihydro-2H-benzo[b][1,4]dioxepin-6-yl)-2-(2,6-difluorobenzamido)propanoic acid] the value was 0.0423 µM; for `O=C(N[C@@H](Cc1ccc(-c2c(Cl)cc(F)cc2Cl)c2c1OCCCO2)C(=O)O)c1c(Cl)cccc1Cl` [Example 97, (S)-3-(9-(2,6-dichloro-4-fluorophenyl)-3,4-dihydro-2H-benzo[b][1,4]dioxepin-6-yl)-2-(2,6-dichlorobenzamido)propanoic acid], 0.062 µM.
Consider `O=C(N[C@@H](Cc1ccc(-c2c(Cl)cc(F)cc2Cl)c2c1OCCC2)C(=O)O)c1c(F)cccc1F` [Example 98, (S)-3-(5-(2,6-dichloro-4-fluorophenyl)chroman-8-yl)-2-(2,6-difluorobenzamido)propanoic acid], for which the 50% effective concentration (EC50) is 0.0978 µM.
In the case of `CCOCc1cc(OC)c(-c2ccc(C[C@H](NC(=O)c3c(F)cccc3F)C(=O)O)c3c2CCCO3)c(OC)c1` [Example 99, (S)-2-(2,6-difluorobenzamido)-3-(5-(4-(ethoxymethyl)-2,6-dimethoxyphenyl)chroman-8-yl)propanoic acid] it was 0.00933 µM; in that of `CCOCc1cc(OC)c(-c2ccc(C[C@H](NC(=O)c3c(F)cc(NS(=O)(=O)c4ccc(-c5ccnc(F)c5)cc4)cc3F)C(=O)O)c3c2CCCO3)c(OC)c1` [Example 100, (S)-2-(2,6-difluoro-4-((4-(2-fluoropyridin-4-yl)phenyl)sulfonamido)benzamido)-3-(5-(4-(ethoxymethyl)-2,6-dimethoxyphenyl)chroman-8-yl)propanoic acid], 0.00167 µM.
In the case of `O=C(N[C@@H](Cc1ccc(-c2c(Cl)cc(F)cc2Cl)c2c1CCCN2)C(=O)O)c1c(F)cccc1F` [Example 101, (S)-3-(8-(2,6-dichloro-4-fluorophenyl)-1,2,3,4-tetrahydroquinolin-5-yl)-2-(2,6-difluorobenzamido)propanoic acid] it was 0.0269 µM; in that of `CN1CCCc2c(C[C@H](NC(=O)c3c(F)cccc3F)C(=O)O)ccc(-c3c(Cl)cc(F)cc3Cl)c21` [Example 102, (S)-3-(8-(2,6-dichloro-4-fluorophenyl)-1-methyl-1,2,3,4-tetrahydroquinolin-5-yl)-2-(2,6-difluorobenzamido)propanoic acid], 0.267 µM; in that of `O=C1CCc2c(C[C@H](NC(=O)c3c(F)cccc3F)C(=O)O)ccc(-c3c(Cl)cc(F)cc3Cl)c2N1` [Example 103, (S)-3-(8-(2,6-dichloro-4-fluorophenyl)-2-oxo-1,2,3,4-tetrahydroquinolin-5-yl)-2-(2,6-difluorobenzamido)propanoic acid], 0.096 µM.
Take `O=C(N[C@@H](Cc1ccc(-c2c(Cl)cc(F)cc2Cl)c2c1CCC2)C(=O)O)c1c(F)cccc1F` [Example 104, (S)-3-(7-(2,6-dichloro-4-fluorophenyl)-2,3-dihydro-1H-inden-4-yl)-2-(2,6-difluorobenzamido)propanoic acid]: the half-maximal effective concentration (EC50) is 0.0887 µM.
